Assay results reported in ChEMBL document CHEMBL1153587, “Design, synthesis and biological evaluation of novel nitrogen and sulfur containing hetero-1,4-naphthoquinones as potent antifungal and antibacterial agents” (2009).
≈ marks a conversion by molar mass, not a printed value.

Assays:
Type in all cases: functional
[1] = system: Cryptococcus neoformans; assay: Antifungal activity against Cryptococcus neoformans after 72 hrs by broth microdilution method
[2] = system: Trichophyton mentagrophytes; assay: Antifungal activity against sTrichophyton mentagrophytes after 96 hrs by broth microdilution method
[3] = system: Candida parapsilosis; assay: Antifungal activity against Candida parapsilosis ATCC 22019 after 48 hrs by broth microdilution method; settings: Lodderomyces parapsilosis, ATCC 22019, 48 h
[4] = system: Aspergillus fumigatus; assay: Antifungal activity against Aspergillus fumigatus after 72 hrs by broth microdilution method
[5] = system: Sporothrix schenckii; assay: Antifungal activity against Sporothrix schenckii after 72 hrs by broth microdilution method
[6] = system: Escherichia coli; assay: Antibacterial activity against Escherichia coli after 24 hrs by broth microdilution method
[7] = system: Candida albicans; assay: Antifungal activity against Candida albicans after 48 hrs by broth microdilution method
[8] = system: Staphylococcus aureus; assay: Antibacterial activity against Staphylococcus aureus ATCC 25923 after 24 hrs by broth microdilution method; settings: ATCC 25923, 24 h
[9] = system: Klebsiella pneumoniae; assay: Antibacterial activity against Klebsiella pneumoniae ATCC 27736 after 24 hrs by broth microdilution method; settings: ATCC 27736, 24 h

Compound	MIC [1] [µg/mL]	MIC [2] [µg/mL]	MIC [3] [µg/mL]	MIC [4] [µg/mL]	MIC [5] [µg/mL]	MIC [6] [µg/mL]	MIC [7] [µg/mL]	MIC [8] [µg/mL]	MIC [9] [µg/mL]
O=C1C(Cl)=C(Nc2ccc(O)cc2)C(=O)c2ccccc21	0.78 (≈ 2.6 µM)	1.56 (≈ 5.2 µM)	6.25 (≈ 20.9 µM)	3.12 (≈ 10.4 µM)	1.56 (≈ 5.2 µM)	> 50	1.56 (≈ 5.2 µM)	6.25 (≈ 20.9 µM)	6.25 (≈ 20.9 µM)
O=C1C(Cl)=C(Sc2cccc3ccccc23)C(=O)c2ccccc21	–	–	–	–	–	25 (≈ 71.3 µM)	–	> 50	> 50
O=C1C(Sc2cccc3ccccc23)=C(N(c2ccccc2)c2ccccc2)C(=O)c2ccccc21	> 50	50 (≈ 103 µM)	> 50	50 (≈ 103 µM)	> 50	–	25 (≈ 51.7 µM)	–	–
COc1ccc2[nH]c3c(=O)c4ccccc4c(=O)c=3sc2c1	–	–	–	–	–	25 (≈ 80.8 µM)	–	12.5 (≈ 40.4 µM)	> 50
O=C1C(Nc2ccccc2)=C(Sc2ccccc2)C(=O)c2ccccc21	–	–	–	–	–	> 50	–	> 50	25 (≈ 69.9 µM)
OC(Cn1cncn1)(Cn1cncn1)c1ccc(F)cc1F [FLUCONAZOLE]	0.5 (≈ 1.63 µM)	1.56 (≈ 5.09 µM)	1 (≈ 3.27 µM)	2 (≈ 6.53 µM)	2 (≈ 6.53 µM)	–	1 (≈ 3.27 µM)	–	–
N#Cc1ccccc1NC1=C(Br)C(=O)c2ccccc2C1=O	12.5 (≈ 35.4 µM)	6.25 (≈ 17.7 µM)	12.5 (≈ 35.4 µM)	> 50	> 50	–	25 (≈ 70.8 µM)	–	–
Clc1ccc(COC(Cn2ccnc2)c2ccc(Cl)cc2Cl)c(Cl)c1 (stereo not given) [MICONAZOLE]	12.5 (≈ 30 µM)	< 0.78	–	12.5 (≈ 30 µM)	–	–	25 (≈ 60.1 µM)	–	–
O=C1C(Nc2ccc(O)cc2)=C(Sc2ccccc2)C(=O)c2ccccc21	–	–	–	–	–	> 50	–	50 (≈ 134 µM)	> 50
NC1=C(Sc2ccccc2)C(=O)c2ccccc2C1=O	25 (≈ 88.9 µM)	12.5 (≈ 44.4 µM)	12.5 (≈ 44.4 µM)	6.25 (≈ 22.2 µM)	25 (≈ 88.9 µM)	> 50	12.5 (≈ 44.4 µM)	6.25 (≈ 22.2 µM)	1.56 (≈ 5.54 µM)
O=c1c2[nH]c3ccccc3sc=2c(=O)c2ccccc12	–	–	–	–	–	25 (≈ 89.5 µM)	–	25 (≈ 89.5 µM)	> 50
NCC[C@H](O)C(=O)N[C@@H]1C[C@H](N)[C@@H](O[C@H]2O[C@H](CN)[C@@H](O)[C@H](O)[C@H]2O)[C@H](O)[C@H]1O[C@H]1O[C@H](CO)[C@@H](O)[C@H](N)[C@H]1O [AMIKACIN]	–	–	–	–	–	1 (≈ 1.71 µM)	–	16 (≈ 27.3 µM)	1 (≈ 1.71 µM)
COc1cccc(SC2=C(Cl)C(=O)c3ccccc3C2=O)c1	–	–	–	–	–	12.5 (≈ 37.8 µM)	–	25 (≈ 75.6 µM)	> 50
N#Cc1ccccc1NC1=C(Cl)C(=O)c2ccccc2C1=O	50 (≈ 162 µM)	> 50	25 (≈ 81 µM)	> 50	> 50	–	50 (≈ 162 µM)	–	–
O=C1C(Cl)=C(NCCN2C(=O)c3ccccc3C2=O)C(=O)c2ccccc21	–	–	–	–	–	6.25 (≈ 16.4 µM)	–	6.25 (≈ 16.4 µM)	50 (≈ 131 µM)
